Values belong to the molecule of their own block, whether it stands above or below them. Square brackets hold non-standard residues; d marks the D form. Peptide text beside a SMILES is read from it. * marks the point of attachment. Sta = CC(C)C[C@H](N)[C@@H](O)CC(=O)O; Isovaleryl = CC(C)CC(=O)*
Key:
APP-degrading protease = assay: Assay of APP-degrading protease (Zn^2+-enhanced degradation of plasma 130 kDa APP); type: biochemical, human
[1] = dot-blot ^65Zn^2+ binding to synthetic peptides (putative zinc-binding domain of APP); settings: for ability to bind ^65Zn^2+: 16 μg peptide dot-blotted
Method: 16 μg of the synthesized peptide […], representing residues 181-214 of APP695 (or residues 181-200), or 16 μg of control peptide, was dissolved in 200 μl of blocking buffer (50 mM Tris-HCl, 1 mM MnCl2 10 mM β-mercaptoethanol, 20% methanol, pH 7.4) and dot-blotted onto PVDF (Immobilon-P, Millipore, Befored, Mass.) which had been pre-wetted with methanol. The blot was then incubated for 30 mins at 20° C. with 100,000 CPM of ^65Zn^2+ in blocking buffer, in the presence or absence of various concentrations of competing unlabeled Zn^2+ or other divalent cations. After incubation the dot-blot was washed three times with 200 μl of blocking buffer without MnCl2, the dot was excised and placed in 10 ml of scintillant and assayed by β-counting.

[2] = young adult control preparation, two hours at 37° C., 20 μM ZnCl2

Molecule: O=C(O)CN(CCN(CC(=O)O)CC(=O)O)CC(=O)O [EDTA, ethylene diamine tetra acetic acid]
influence on Zn^2+-enhanced APP proteolysis (APP-degrading protease; [2]): completely inhibited

Molecule: GVEFVCCPLAEESDNVDSADAEEDDSDVWWGGAD [residues 181-214 of APP]
ability to bind ^65Zn^2+ [1]: able to bind Zn^2+ in a saturable and specific manner

Molecule: CC(C)CC(=O)N[C@H](C(=O)N[C@H](C(=O)N[C@@H](CC(C)C)[C@@H](O)CC(=O)N[C@@H](C)C(=O)N[C@@H](CC(C)C)[C@@H](O)CC(=O)O)C(C)C)C(C)C [pepstatin A] (Isovaleryl-VV[Sta]A[Sta]-OH)
influence on Zn^2+-enhanced APP proteolysis (APP-degrading protease; […]): Neither Al3Cl, the cysteine-protease inhibitor N-ethyl maleimide, nor the acid-protease inhibitor pepstatin A influenced the reaction

Molecule: residues 181-200 of APP: synthetic peptide representing about residues 181-200 of APP (SADAEEDDSDVWWGGADTDY; UniProt P05067 198-217, looked up, fragment)
ability to bind ^65Zn^2+ [1]: bind zinc in a specific and saturable manner

Molecule: CCN1C(=O)C=CC1=O [N-ethyl maleimide, N-ethylmaleimide]
influence on Zn^2+-enhanced APP proteolysis (APP-degrading protease; [2]): Neither Al3Cl, the cysteine-protease inhibitor N-ethyl maleimide, nor the acid-protease inhibitor pepstatin A influenced the reaction

Molecule: aprotinin
influence on Zn^2+-enhanced APP proteolysis (APP-degrading protease; [2]): completely inhibited

Molecule: Insulin A chain: control peptide
ability to bind ^65Zn^2+ [1]: unable to bind Zn^2+

Molecule: residues 422-433: peptide representing another region of the APP molecule (VESLEQEAANER; UniProt P05067 439-450, looked up, fragment)
ability to bind ^65Zn^2+ [1]: unable to bind Zn^2+

Molecule: Insulin B chain: positive control
ability to bind ^65Zn^2+ [1]: bound ^65Zn^2+

B1: soya bean trypsin inhibitor (protein, UniProt P01070 25-205, looked up)
Trypsin inhibitor A: DFVLDNEGNPLENGGTYYILSDITAFGGIRAAPTGNERCPLTVVQSRNELDKGIGTIISSPYRIRFIAEGHPLSLKFDSFAVIMLCVGIPTEWSVVEDLPEGPAVKIGENKDAMDGWFRLERVSDDEFNNYKLVFCPQQAEDDKCGDIGISIDHDDGTRRLVVSKNKPLVVQFQKLDKESL
influence on Zn^2+-enhanced APP proteolysis (APP-degrading protease; [2]): completely inhibited

The remaining lines, values ahead:

ability to bind ^65Zn^2+ [1]: unable to bind Zn^2+
Molecule: renin

ability to bind ^65Zn^2+ [1]: unable to bind Zn^2+
Molecule: residues 581-601: peptide representing another region of the APP molecule (TETKTTVELLPVNGEFSLDDL; UniProt P05067 598-618, looked up, fragment)

amount of ^65Zn^2+ binding relative to same quantity of 181-214 peptide [1]: approximately 15%
Molecule: residues 189-220 of APP695: synthetic peptide lacking the cysteine residues at positions 186/187 (LAEESDNVDSADAEEDDSDVWWGGADTDYADG; APP695; UniProt P05067 189-220, looked up, fragment)

amount of ^65Zn^2+ binding relative to same quantity of 181-214 peptide [1]: approximately 15%
Molecule: carboxyamidomethylated 181-214 peptide: the 181-214 peptide where the cysteines had been modified by carboxyamidomethylation

ability to bind ^65Zn^2+ [1]: unable to bind Zn^2+
Molecule: residues 645-655: peptide representing another region of the APP molecule (KTEEISEVKMD; UniProt P05067 662-672, looked up, fragment)

From US20040265847A1, “Method for treating Alzheimer's disease” (priority 1991, published 2004)
